The values that follow come from US20230339856A1, “NOVEL PHARMACOLOGICAL CHAPERONE COMPOUNDS OF HUMAN ACID ALPHA-GLUCOSIDASE AND THE THERAPEUTIC USE THEREOF” (UNIVERSITÉ GRENOBLE ALPES, priority 2020, published 2023).

Like-named read-outs stand apart in the source and are kept apart here. A value given as a limit tells only on which side of the number the result lay.

The target of test [1] is T1, recombinant human acid α-glucosidase (rhGAA) (Homo sapiens (Human), UniProt P10253). As to the kind of experiment: Inhibition of rhGAA determined by Fluopol-ABPP. It counts as binding. The conditions noted are these: McIlvaine buffer pH 5.0, 37° C., TAMRA probe. The text has this:
The inhibiting activity on recombinant human acid α-glucosidase (rhGAA) of the compounds is implemented using the Fluopol-ABPP method (Fluorescence Polarization Activity Based Protein Profiling) described in the publication of Lahav et al., 2017, J. Am. Chem. Soc. 139: 14192-14197. This technique, based on the competition between an inhibitor and a fluorescent probe capable of binding covalently to the active site of an enzyme, makes it possible to measure the affinity of this inhibitor for the active site of the rhGAA enzyme used for these experiments by the laboratory of Professors Herman S. Overkleeft and Johanes M. F. G. Aerts, Leiden Institute of Chemistry, Leiden University (NL), is the enzyme marketed under the name Myozyme®. […] The […] (TAMRA) fluorescent probe in solution (25 nM) in the buffer is next added to the mixture. After 4 hours, the samples are irradiated with a polarized light (λ=530 nm) and the fluorescence emitted (λ=580 nm) is measured by means of an Infinite® M1000Pro (Tecan) spectrofluorimeter. For each concentration of inhibitor, the percentage of inhibition of the enzyme is determined by the formula:
%Inhibition=[Fmeasured−Fcontrol1)/Fcontro2)×100
The IC50 values are calculated by a non-linear regression of the % inhibition as a function of the concentration [I] by means of the GraphPad Prism 6.0 software. The results are a mean of three identical experiments (triplicates).

Test [2] concerns the target T1, recombinant human acid α-glucosidase (rhGAA). As to the kind of experiment: Inhibition of rhGAA determined by measuring the residual activity in vitro. It counts as biochemical. The following applies: sodium acetate buffer pH 4.0, 37° C., 4-nitrophenyl-α-D-glucopyranoside substrate.
Test [3] concerns the target T2, rhGAA (Homo sapiens (Human), UniProt P10253). As to the kind of experiment: Thermal stabilization of rhGAA by DSF (differential scanning fluorimetry). It counts as binding. As to the method:
The stabilization of rhGAA in the presence of the compounds is determined in accordance with the method described in the publication of Niesen et al., 2007, Nat. Protoc. 2: 2212-2221. The rhGAA enzyme (2.5 μg, 0.1 mg/mL) is incubated in the absence and in the presence of each compound (at a concentration [I]=100 μM), of SYPRO® orange dye (Life Technologies), and of sodium phosphate buffer (25 mM) and of NaCI (150 mM), pH 7.4 or of sodium acetate buffer (25 mmol) and of NaCl (150 mM), pH 4.0. The thermal stability of the enzyme in these various conditions is evaluated by DSF (differential scanning fluorimetry) by varying the temperature by 1° C./min over an interval of 25 to 95° C., and measuring the fluorescence of the SYPRO® orange dye every minute by means of a Real-Time Cycler spectrofluorimeter (Biorad). The relative fluorescence is determined by comparing each fluorescence value measured with that of the maximum fluorescence value of the SYPRO® orange dye for each scan. The results are a mean of three identical experiments (triplicates).

For test [4], the target named is T3, α-glucosidase II of the endoplasmic reticulum (GANAB) (Homo sapiens (Human), UniProt Q14697). As to the kind of experiment: Inhibition of GANAB in lysates of fibroblasts of Pompe patients. The conditions noted are these: pH 7.0, 4-methyl-umbelliferone-α-D-glucopyranoside 2.4 mM, 2 hours. It counts as biochemical. How it is done:
(§1) The selectivity of the compounds was evaluated in the laboratory of Professors Herman S. Overkleeft and Johanes M. F. G. Aerts, Leiden Institute of Chemistry, Leiden University (NL). The enzymes used for determining the selectivity of inhibition of the compounds with respect to various human enzymes are the α-glucosidase II of the endoplasmic reticulum (GANAB), recombinant human lysosomal β-glucocerebrosidase (GBA1), human non-lysosomal β-glucosylceramidase (GBA2) and β-glucosylceramide synthase (GCS). The inhibiting activity of the compounds on these various enzymes is determined as described in the publication by Artola et al., 2017, ACS Cent. Sci. 3: 784-793. The enzyme GBA1 sold under the name Cerezyme® and the enzyme rhGAA sold under the name Myozyme® are used. The human GANAB enzyme used for this study is that of fibroblasts of patients suffering from Pompe disease diagnosed as lacking active GAA and voluntary donors. These fibroblasts were cultivated on an HAMF12-DMEM medium (Sigma) supplemented by 10% (v/v) FCS (fetal calf serum). The GBA2 enzyme was over-expressed in HEK298T cells cultivated on a DMEM medium enriched with glucose (Gibco) supplemented by 10% NBS (newborn bovine serum) and 100 units/mL of penicillin/streptomycin (Gibco) and 5% CO2 at 37° C. The activity of the compounds on human β-glucosylceramide synthase (GCS) is evaluated in situ on cells of the RAW 264.7 type cultivated on an RPMI medium (Gibco) supplemented by 10% FCS, 1 mM of glutamax, 100 units/mL of penicillin/streptomycin (Gibco) and 5% CO2 at 37° C.
(§2) These cell lysates are homogenized using a SilentCrusher grinder (Heidolph®), and then subjected to ultracentrifugation at 32,000 rpm for 30 minutes at 4° C. The total protein concentration is determined in accordance with the Bradford method (Bradford, 1976, Anal. Biochem. 72: 248-254), using a Bradford BioRad Quick Start® kit (Pierce) and BSA (Sigma). The lysates are next aliquoted and stored at −80° C. before use.

The target of test [5] is recombinant human lysosomal β-glucocerebrosidase (GBA1) (Homo sapiens (Human), UniProt P04062, R534H). As to the kind of experiment: Inhibition of GBA1 (Cerezyme). It counts as biochemical. The following applies: pH 5.2, 4-methyl-umbelliferone-β-D-glucopyranoside 3.0 mM, 30 minutes. How it is done:
as §1

In test [6] the target is human non-lysosomal β-glucosylceramidase (GBA2) (Homo sapiens (Human), UniProt Q9HCG7). As to the kind of experiment: Inhibition of GBA2 in lysates of HEK298T cells over-expressing GBA2. Format: biochemical. The conditions noted are these: pH 5.8, 4-methyl-umbelliferone-β-D-glucopyranoside 3.0 mM, 1 hour. How it is done:
as §1, §2
The residual activity of GBA2 in the presence of the compounds is determined after pre-incubation for 30 minutes of the homogenates of HEK298T cells over-expressing GBA2 with an inhibitor of GBA1, conduritol β-epoxide (Sigma), at a concentration of 1 mM.

For test [7], the target named is β-glucosylceramide synthase (GCS) (Mus musculus (Mouse), UniProt O88693). As to the kind of experiment: Inhibition of GCS in situ in RAW 264.7 cells. The conditions noted are these: pH 7.0, 1 μM NBD-ceramide. Format: cell-based. As to the method: as §1, §2
The residual activity of GCS in the presence of the compounds is determined after pre-incubation for 1 hour of the homogenates of RAW 264.7 cells with an inhibitor of GBA1, conduritol β-epoxide (Sigma), at a concentration of 300 μM.
The I50 values for the GCS enzyme are determined in situ in the cell culture medium at pH 7.0 using 1 μM of NBD-ceramide (N-[12-[(7-nitro-2-1,3-benzoxadiazol-4-yl)amino]dodecanoyl]-D-erythro-sphingosine) as substrate, as described in the aforementioned publication of Lahav et al.

For test [8], the target named is T2, rhGAA. The conditions noted are these: literature value, cited from earlier work; for rhGAA ΔTm: pH 4.3, measured at [compound]=10 times the value of Ki.
Test [9] addresses T3, α-glucosidase II of the endoplasmic reticulum (GANAB). The following applies: literature value; cited from earlier work.

T3 sequence (Q14697 29-944): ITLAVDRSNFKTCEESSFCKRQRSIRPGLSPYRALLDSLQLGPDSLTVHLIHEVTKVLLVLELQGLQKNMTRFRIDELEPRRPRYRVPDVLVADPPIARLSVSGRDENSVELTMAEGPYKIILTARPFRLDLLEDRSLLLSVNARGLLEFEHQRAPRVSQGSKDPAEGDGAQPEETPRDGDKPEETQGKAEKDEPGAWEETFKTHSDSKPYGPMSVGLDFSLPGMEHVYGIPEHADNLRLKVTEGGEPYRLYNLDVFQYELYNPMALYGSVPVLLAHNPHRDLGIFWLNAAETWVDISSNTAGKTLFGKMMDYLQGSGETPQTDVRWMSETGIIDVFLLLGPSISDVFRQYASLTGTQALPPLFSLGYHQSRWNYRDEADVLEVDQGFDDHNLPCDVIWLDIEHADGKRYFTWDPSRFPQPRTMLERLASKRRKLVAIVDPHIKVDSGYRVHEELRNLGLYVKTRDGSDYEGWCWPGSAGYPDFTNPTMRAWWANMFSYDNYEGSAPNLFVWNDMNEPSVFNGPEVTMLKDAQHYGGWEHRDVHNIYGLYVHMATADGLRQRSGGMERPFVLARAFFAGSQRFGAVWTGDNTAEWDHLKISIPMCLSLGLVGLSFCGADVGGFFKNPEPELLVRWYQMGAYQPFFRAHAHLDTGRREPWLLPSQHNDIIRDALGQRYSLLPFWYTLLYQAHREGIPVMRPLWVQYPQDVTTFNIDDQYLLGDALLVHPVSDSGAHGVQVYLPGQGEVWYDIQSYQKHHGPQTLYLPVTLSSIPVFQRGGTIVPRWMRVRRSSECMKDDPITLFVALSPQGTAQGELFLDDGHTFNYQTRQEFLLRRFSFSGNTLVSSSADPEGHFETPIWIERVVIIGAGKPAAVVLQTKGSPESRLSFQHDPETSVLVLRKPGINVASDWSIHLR
T3 sequence (P14314 15-528 partner): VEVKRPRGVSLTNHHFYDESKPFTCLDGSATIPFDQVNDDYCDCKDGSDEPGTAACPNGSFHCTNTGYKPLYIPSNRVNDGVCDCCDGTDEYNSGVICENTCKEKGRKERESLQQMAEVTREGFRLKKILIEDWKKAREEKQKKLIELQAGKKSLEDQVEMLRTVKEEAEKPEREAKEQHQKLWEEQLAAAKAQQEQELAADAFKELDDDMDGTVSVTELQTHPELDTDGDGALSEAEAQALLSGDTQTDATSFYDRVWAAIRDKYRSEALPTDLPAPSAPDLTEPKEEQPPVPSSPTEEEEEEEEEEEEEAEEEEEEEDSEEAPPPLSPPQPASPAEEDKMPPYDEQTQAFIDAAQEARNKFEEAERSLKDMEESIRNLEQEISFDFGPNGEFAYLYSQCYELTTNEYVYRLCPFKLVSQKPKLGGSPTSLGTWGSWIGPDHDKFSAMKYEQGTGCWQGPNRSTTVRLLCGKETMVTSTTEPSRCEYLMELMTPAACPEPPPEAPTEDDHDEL
Sequence of β-glucosylceramide synthase (GCS) (O88693 whole entry): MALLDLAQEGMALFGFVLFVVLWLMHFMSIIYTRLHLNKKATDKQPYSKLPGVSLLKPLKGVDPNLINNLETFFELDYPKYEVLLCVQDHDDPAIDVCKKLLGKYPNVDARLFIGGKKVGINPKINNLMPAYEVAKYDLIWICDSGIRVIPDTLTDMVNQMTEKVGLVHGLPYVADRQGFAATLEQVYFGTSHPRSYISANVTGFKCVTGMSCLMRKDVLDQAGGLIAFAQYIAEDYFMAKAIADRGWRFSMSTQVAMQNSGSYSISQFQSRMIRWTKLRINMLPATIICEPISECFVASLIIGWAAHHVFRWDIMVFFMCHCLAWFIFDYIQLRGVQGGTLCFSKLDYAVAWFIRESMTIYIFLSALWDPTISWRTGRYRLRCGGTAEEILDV
Sequence of human non-lysosomal β-glucosylceramidase (GBA2) (Q9HCG7 whole entry): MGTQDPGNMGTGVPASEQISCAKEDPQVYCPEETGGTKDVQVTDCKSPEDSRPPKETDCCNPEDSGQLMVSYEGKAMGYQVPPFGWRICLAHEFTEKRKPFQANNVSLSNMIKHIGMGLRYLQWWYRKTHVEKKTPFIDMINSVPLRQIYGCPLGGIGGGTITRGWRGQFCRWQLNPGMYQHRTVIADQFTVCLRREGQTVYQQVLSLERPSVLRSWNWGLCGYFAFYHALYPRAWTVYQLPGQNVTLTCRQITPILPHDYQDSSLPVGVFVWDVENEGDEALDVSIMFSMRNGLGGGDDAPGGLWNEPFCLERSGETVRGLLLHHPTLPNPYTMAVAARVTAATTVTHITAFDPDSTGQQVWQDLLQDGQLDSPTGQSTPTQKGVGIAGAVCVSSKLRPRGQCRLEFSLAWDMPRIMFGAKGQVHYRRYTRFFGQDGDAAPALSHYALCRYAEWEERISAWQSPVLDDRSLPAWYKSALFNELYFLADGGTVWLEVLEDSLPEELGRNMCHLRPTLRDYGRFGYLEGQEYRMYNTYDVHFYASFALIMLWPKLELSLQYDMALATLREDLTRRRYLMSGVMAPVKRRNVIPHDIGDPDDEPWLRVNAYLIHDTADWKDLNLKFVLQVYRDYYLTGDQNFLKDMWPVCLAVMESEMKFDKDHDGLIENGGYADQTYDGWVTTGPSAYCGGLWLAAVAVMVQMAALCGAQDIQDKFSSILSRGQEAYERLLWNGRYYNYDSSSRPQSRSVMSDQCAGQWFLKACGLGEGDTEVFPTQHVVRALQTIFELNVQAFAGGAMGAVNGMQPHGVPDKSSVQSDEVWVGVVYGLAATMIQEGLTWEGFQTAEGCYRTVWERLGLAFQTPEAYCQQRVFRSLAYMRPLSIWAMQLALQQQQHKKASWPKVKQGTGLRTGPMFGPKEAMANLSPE
Sequence of recombinant human lysosomal β-glucocerebrosidase (GBA1) (P04062 40-536 R534H limits assumed): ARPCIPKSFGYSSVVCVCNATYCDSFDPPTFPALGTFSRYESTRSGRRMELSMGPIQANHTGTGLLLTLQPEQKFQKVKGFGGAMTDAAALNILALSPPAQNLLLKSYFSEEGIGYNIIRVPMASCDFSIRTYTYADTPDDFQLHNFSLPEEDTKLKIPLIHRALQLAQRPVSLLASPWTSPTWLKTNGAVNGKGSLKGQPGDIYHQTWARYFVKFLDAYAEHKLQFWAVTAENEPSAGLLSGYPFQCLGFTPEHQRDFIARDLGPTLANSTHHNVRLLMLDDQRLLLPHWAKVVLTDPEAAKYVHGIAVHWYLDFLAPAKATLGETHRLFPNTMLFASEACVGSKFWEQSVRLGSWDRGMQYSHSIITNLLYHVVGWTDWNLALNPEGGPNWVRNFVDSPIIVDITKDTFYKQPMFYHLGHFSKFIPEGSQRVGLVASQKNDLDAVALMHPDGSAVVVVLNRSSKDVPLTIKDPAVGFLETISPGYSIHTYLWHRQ

As a reminder, the IC50 is the midpoint of a concentration-inhibition curve. A word on the ΔTm: it is the change in melting temperature against a reference sample. On to `OC[C@@]12CCCCN1C[C@H](O)[C@@H](O)[C@@H]2O` [(IIf), (1R,2R,3S,9aR)-9a-(hydroxymethyl)octahydro-1H-quinolizine-1,2,3-triol], for which the IC50 in test [1] is 0.87 µM; in [2], 297 µM; in test [4], above 100 µM; in test [5], above 1000 µM; in test [6], above 1000 µM; in test [7], above 50 µM. Further, the ΔTm at 100 µM in test [3] ([I]=100 μM, pH 4.0, read-out: rhGAA ΔTm at pH 4.0) was 6.4 °C; in test [3] ([I]=100 μM, pH 7.4, read-out: rhGAA ΔTm at pH 7.4) it was 11.8 °C.
Regarding `OC[C@@]12CCCN1C[C@H](O)[C@@H](O)[C@@H]2O` [(IIg), (6S, 7R, 8R, 8aR)-8a-(hydroxymethyl)-octahydroindolizine-6,7,8-triol], the half-maximal inhibitory concentration (IC50) in test [1] was 0.46 µM; in test [2], 387 µM; in test [4] it was above 100 µM; in [5], above 1000 µM; in test [6], above 1000 µM; in [7] it was above 50 µM. The ΔTm at 100 µM in test [3] (read-out: rhGAA ΔTm at pH 4.0) came out at 6.7 °C; in test [3] (read-out: rhGAA ΔTm at pH 7.4), 14.4 °C.
For the molecule `OC[C@H]1NC[C@H](O)[C@@H](O)[C@@H]1O` [DNJ, deoxynojirimycin], in [8], the “rhGAA ΔTm” value is on record as 2.7 (pH 4.3)*^b ° C and the “rhGAA ΔTm at pH 7.4” value was 15^c^ ° C.
For the molecule `CCCCN1C[C@H](O)[C@@H](O)[C@H](O)[C@H]1CO` [NB-DNJ], in test [8], the “rhGAA ΔTm” value is 6.2 (pH 4.3)*^b ° C and the “rhGAA ΔTm at pH 7.4” value is recorded as 12^d^ ° C. Further, in test [9], the concentration for half-maximal inhibition (IC50) is 15 µM.
